According to US9481676B2, “Azepino[4,5-B]indoles and methods of use” (Medivation Technologies, Inc., priority 2008, dated 2016):

How the values were obtained:
[1] = molecular target: T1, human recombinant serotonin (5-Hydroxytryptamine) 5-HT2C receptor (Homo sapiens, UniProt P28335); test: Serotonin 5-HT2C radioligand binding ([3H]Mesulergine); conditions: compound at 1 μM; read-out: Serotonin (1 μM) 5-HT2C, percent inhibition of specific binding
T1 construct: expressed in transfected cells; host or cells: CHO-K1 cells
T1 sequence (P28335 33-458): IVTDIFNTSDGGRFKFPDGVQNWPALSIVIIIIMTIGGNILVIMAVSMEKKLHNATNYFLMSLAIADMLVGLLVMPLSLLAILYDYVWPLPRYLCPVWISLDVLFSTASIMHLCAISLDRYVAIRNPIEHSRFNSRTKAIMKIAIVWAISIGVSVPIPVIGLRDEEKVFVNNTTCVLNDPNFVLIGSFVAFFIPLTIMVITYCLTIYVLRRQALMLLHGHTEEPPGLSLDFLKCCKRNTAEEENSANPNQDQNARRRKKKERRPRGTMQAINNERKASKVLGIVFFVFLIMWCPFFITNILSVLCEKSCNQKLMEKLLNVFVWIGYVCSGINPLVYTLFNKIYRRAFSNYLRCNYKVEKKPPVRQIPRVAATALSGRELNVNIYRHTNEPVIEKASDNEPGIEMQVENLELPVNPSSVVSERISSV
Method: To evaluate in radioligand binding assays the activity of compounds of the invention, human recombinant serotonin (5-Hydroxytryptamine) 5-HT2C receptor expressed in Chinese hamster ovary (CHO-K1) cells (Wolf, W. A. and Schutz, J. S., J. Neurochem. 69:1449, 1997) in a modified Tris-HCl buffer (50 mM Tris-HCl, pH 7.4, 0.1% Ascorbic Acid, 10 μM Pargyline) was used. Compounds of the invention were incubated with 1 nM [^3H]Mesulergine for 60 min. at 25° C. Non-specific binding was estimated in the presence of 1 μM Mianserin. Receptor proteins were filtered and washed, the filters were then counted to determine [^3H]Mesulergine specifically bound. Compounds were screened at 1 μM or lower, using 1% DMSO as vehicle. Biochemical assay results are presented as the percent inhibition of specific binding in Table 6.

[2] = molecular target: T2, human recombinant serotonin (5-Hydroxytryptamine) 5-HT2A receptor (Homo sapiens, UniProt P28223); test: Serotonin 5-HT2A radioligand binding ([3H]Ketanserin); conditions: compound at 1 μM; read-out: Serotonin (1 μM) 5-HT2A, percent inhibition of specific binding
T2 construct: expressed in transfected cells; host or cells: CHO-K1 cells
T2 sequence (P28223 whole entry): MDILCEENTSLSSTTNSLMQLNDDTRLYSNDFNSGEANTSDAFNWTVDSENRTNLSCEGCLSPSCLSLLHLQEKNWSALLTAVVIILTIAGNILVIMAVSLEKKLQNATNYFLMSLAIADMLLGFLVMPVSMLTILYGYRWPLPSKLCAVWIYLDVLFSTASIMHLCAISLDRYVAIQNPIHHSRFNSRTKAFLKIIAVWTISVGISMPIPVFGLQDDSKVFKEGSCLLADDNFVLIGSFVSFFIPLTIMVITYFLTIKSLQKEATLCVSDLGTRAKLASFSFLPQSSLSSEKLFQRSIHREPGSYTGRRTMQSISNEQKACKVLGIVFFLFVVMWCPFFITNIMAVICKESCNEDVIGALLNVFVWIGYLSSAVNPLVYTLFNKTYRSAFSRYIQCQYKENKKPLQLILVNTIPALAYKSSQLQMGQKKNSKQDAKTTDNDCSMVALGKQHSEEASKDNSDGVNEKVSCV
Method: To evaluate in radioligand binding assays the activity of compounds of the invention, human recombinant serotonin (5-Hydroxytryptamine) 5-HT2A receptor expressed in Chinese hamster ovary (CHO-K1) cells (Bonhaus, D. W. et al. Br. J. Pharmacol. 115:622, 1995; Saucier, C. and Albert, P. R., J. Neurochem. 68:1998, 1997) in a 50 mM Tris-HCl buffer, pH 7.4, was used. Compounds of the invention were incubated with 0.5 nM [^3H]Ketanserin for 60 min. at 25° C. Non-specific binding was estimated in the presence of 1 μM Mianserin. Receptor proteins were filtered and washed, the filters were then counted to determine [^3H]Ketanserin specifically bound. Compounds were screened at 1 μM or lower, using 1% DMSO as vehicle. Biochemical assay results are presented as the percent inhibition of specific binding in Table 6.

[3] = molecular target: T3, human recombinant serotonin (5-Hydroxytryptamine) 5-HT6 receptor (Homo sapiens, UniProt P50406); test: Serotonin 5-HT6 radioligand binding ([3H]LSD); conditions: compound at 1 μM; read-out: Serotonin (1 μM) 5-HT6, percent inhibition of specific binding
T3 construct: expressed in transfected cells; host or cells: human HeLa cells
T3 sequence (P50406 whole entry): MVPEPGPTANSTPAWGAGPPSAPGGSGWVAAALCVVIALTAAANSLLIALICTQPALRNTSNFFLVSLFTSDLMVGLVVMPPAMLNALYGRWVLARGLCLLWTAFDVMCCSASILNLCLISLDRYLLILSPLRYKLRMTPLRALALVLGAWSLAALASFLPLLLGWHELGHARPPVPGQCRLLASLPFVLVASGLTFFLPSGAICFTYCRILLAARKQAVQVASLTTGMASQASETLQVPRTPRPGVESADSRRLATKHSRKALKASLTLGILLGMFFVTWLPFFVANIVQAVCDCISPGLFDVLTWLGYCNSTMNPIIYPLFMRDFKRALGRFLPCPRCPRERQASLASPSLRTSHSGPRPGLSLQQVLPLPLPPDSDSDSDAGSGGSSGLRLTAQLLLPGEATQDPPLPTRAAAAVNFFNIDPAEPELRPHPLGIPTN
Method: To evaluate in radioligand binding assays the activity of compounds of the invention, human recombinant serotonin (5-Hydroxytryptamine) 5-HT6 receptor expressed in human HeLa cells (Monsma, F. J. Jr. et al., Mol. Pharmacol. 43:320, 1993) in a modified Tris-HCl buffer (50 mM Tris-HCl, pH 7.4, 150 mM NaCl, 2 mM Ascorbic Acid, 0.001% BSA) was used. Compounds of the invention were incubated with 1.5 nM [3H]Lysergic acid diethylamide (LSD) for 120 min. at 37° C. Non-specific binding was estimated in the presence of 5 μM Serotonin (5-HT). Receptor proteins were filtered and washed, the filters were then counted to determine [3H]LSD specifically bound. Compounds were screened at 1 μM or lower, using 1% DMSO as vehicle. Biochemical assay results are presented as the percent inhibition of specific binding in Table 6.

[4] = molecular target: T4, human recombinant dopamine D2L receptor (Homo sapiens, UniProt P14416); test: Dopamine D2L radioligand binding ([3H]Spiperone); conditions: compound at 1 μM; read-out: Dopamine (1 μM) D2L, percent inhibition of specific binding
T4 construct: expressed in transfected cells; host or cells: CHO cells
T4 sequence (P14416 whole entry): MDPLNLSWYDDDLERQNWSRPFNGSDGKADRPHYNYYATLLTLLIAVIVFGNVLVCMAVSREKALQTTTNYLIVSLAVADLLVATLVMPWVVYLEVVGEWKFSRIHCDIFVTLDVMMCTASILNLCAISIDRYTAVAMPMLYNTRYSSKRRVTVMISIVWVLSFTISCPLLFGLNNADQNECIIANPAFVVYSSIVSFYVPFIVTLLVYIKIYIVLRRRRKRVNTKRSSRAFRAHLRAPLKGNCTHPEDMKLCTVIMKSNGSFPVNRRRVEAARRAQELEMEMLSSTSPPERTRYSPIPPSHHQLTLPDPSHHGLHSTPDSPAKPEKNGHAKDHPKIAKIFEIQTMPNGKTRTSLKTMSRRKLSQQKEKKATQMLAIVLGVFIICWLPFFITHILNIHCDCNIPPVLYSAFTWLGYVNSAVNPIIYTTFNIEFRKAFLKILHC
Method: To evaluate in radioligand binding assays the activity of compounds of the invention, human recombinant dopamine D2L receptor expressed in Chinese hamster ovary (CHO) cells (Grandy, D. K. et al. Proc. Natl. Acad. Sci. USA. 86:9762, 1989; Hayes, G. et al., Mol. Endocrinol. 6:920, 1992) in a modified Tris-HCl buffer (50 mM Tris-HCl, pH 7.4, 1.4 mM Ascorbic Acid, 0.001% BSA, 150 mM NaCl) was used. Compounds of the invention were incubated with 0.16 nM [^3H]Spiperone for 120 min. at 25° C. Non-specific binding was estimated in the presence of 10 μM Haloperidol. Receptor proteins were filtered and washed, the filters were then counted to determine [^3H]Spiperone specifically bound. Compounds were screened at 1 μM or lower, using 1% DMSO as vehicle. Biochemical assay results are presented as the percent inhibition of specific binding in Table 5.

[5] = molecular target: T5, human recombinant histamine H1 receptor (Homo sapiens, UniProt P35367); test: Histamine H1 radioligand binding ([3H]Pyrilamine); conditions: compound at 1 μM; read-out: Histamine Binding (1 μM) H1, percent inhibition of specific binding
T5 construct: expressed in transfected cells; host or cells: CHO cells
T5 sequence (P35367 whole entry): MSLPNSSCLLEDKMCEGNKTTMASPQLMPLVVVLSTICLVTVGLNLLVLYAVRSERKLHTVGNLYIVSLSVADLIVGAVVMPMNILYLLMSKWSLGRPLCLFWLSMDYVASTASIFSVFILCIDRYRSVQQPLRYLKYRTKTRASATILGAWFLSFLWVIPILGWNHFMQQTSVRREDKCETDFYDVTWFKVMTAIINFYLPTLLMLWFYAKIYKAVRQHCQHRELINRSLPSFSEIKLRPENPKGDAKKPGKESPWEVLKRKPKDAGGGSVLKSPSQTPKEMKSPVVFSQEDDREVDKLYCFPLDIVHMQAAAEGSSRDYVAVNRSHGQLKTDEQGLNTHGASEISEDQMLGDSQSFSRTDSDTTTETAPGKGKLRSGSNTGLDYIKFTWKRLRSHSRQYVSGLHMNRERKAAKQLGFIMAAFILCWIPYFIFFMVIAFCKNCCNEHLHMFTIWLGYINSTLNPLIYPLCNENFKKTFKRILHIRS
Method: To evaluate in radioligand binding assays the activity of compounds of the invention, human recombinant histamine H1 receptor expressed in Chinese hamster ovary (CHO) cells (De Backer, M. D. et al., Biochem. Biophys. Res. Comm. 197(3):1601, 1993) in a modified Tris-HCl buffer (50 mM Tris-HCl, pH 7.4, 2 mM MgCl2, 100 mM NaCl, 250 mM Sucrose) was used. Compounds of the invention were incubated with 1.2 nM [^3H]Pyrilamine for 180 min. at 25° C. Non-specific binding was estimated in the presence of 1 μM pyrilamine. Receptor proteins were filtered and washed, the filters were then counted to determine [^3H]Pyrilamine specifically bound. Compounds were screened at 1 μM or lower, using 1% DMSO as vehicle. Biochemical assay results are presented as the percent inhibition of specific binding in Table 6.

[6] = molecular target: T6, human recombinant histamine H2 receptor (Homo sapiens, UniProt P25021); test: Histamine H2 radioligand binding ([125I]Aminopotentidine); conditions: compound at 1 μM; read-out: Histamine Binding (1 μM) H2, percent inhibition of specific binding
T6 construct: expressed in transfected cells; host or cells: CHO-K1 cells
T6 sequence (P25021 whole entry): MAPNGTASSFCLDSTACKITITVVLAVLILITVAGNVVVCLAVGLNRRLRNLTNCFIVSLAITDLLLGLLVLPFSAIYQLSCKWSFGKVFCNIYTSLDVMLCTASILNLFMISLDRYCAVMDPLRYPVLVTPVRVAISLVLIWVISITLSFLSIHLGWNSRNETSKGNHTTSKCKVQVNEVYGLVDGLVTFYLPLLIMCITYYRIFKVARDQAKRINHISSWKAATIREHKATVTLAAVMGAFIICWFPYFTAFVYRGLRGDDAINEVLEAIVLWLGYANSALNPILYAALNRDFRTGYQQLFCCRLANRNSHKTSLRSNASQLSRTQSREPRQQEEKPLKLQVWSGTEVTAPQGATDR
Method: To evaluate in radioligand binding assays the activity of compounds of the invention, human recombinant histamine H2 receptor expressed in Chinese hamster ovary (CHO) K1 cells (Ruat, M., Proc. Natl. Acad. Sci. USA. 87(5):1658, 1990) in a 50 mM Phosphate buffer, pH 7.4 was used. Compounds of the invention were incubated with 0.1 nM [^125I]Aminopotentidine for 120 min. at 25° C. Non-specific binding was estimated in the presence of 3 μM Tiotidine. Receptor proteins were filtered and washed, the filters were then counted to determine [^125I]Aminopotentidine specifically bound. Compounds were screened at 1 μM or lower, using 1% DMSO as vehicle. Biochemical assay results are presented as the percent inhibition of specific binding in Table 6.

[7] = test system: cells treated with the cell toxin ionomycin; conditions: cited from earlier work
[8] = test system: brain cells (neurons); conditions: preclinical models of Alzheimer's disease and Huntington's disease; cited from earlier work
[9] = test system: neurite outgrowth and neurogenesis; conditions: cited from earlier work
[10] = after treatment with the cell toxin ionomycin

## COc1ccc(C#Cn2c3c(c4cc(C)ccc42)CCN(C)CC3)cc1F [Compound No. 284, 6-((3-fluoro-4-methoxyphenyl)ethynyl)-3,9-dimethyl-1,2,3,4,5,6-hexahydroazepino[4,5-b]indole]
[1]
  inhibition at 1 µM: 100%
[2]
  inhibition at 1 µM: 94%
[3]
  inhibition at 1 µM: 42%
[4]
  inhibition at 1 µM: 11%
[5]
  inhibition at 1 µM: 11%
[6]
  inhibition at 1 µM: 4%

## Cc1ccc2c(c1)c1c(n2CCc2ccc(C)nc2)CCN(C)C1 [Dimebon, dimebon]
[7]; [10]
  mitochondrial function: improved mitochondrial function
  number of surviving cells: increased the number of surviving cells
[7]; setting of cellular stress
  mitochondrial function of cells: improve the mitochondrial function of cells in the setting of cellular stress with very high potency
[8]
  death of brain cells (neurons): inhibit the death of brain cells (neurons)
[9]
  neurite outgrowth and neurogenesis: promote neurite outgrowth and neurogenesis
